Common to all, as to type: biochemical
In experiment [1] the target is dipeptidyl peptidase 7 (DPP 7) (Homo sapiens, UniProt Q9UHL4). Kind of experiment: DPP 7 activity screening. The conditions noted are these: N.I. = No Inhibition. The method, then:
(§1) Screening method: dipeptidyl peptidase IV (DPP IV) activity screening, dipeptidyl peptidase 7 (DPP 7), dipeptidyl peptidase 8 (DPP 8) activity screening, and dipeptidyl peptidase 9 (DPP 9) activity screening.
(§2) Sample treatment: the sample was dissolved in DMSO and stored in low temperature. The concentration of DMSO in the final system was controlled so that the detected activity was not affected.
(§3) The activity of sample was tested under the selected single concentration from preliminary screening, for example, 20 μg/mL. […] The software for calculation was Graphpad Prism 4 and the model used for fitting was sigmoidal dose-response (variable slope). For most inhibitor screening models, the bottom and top of the fitting curve were set to 0 and 100.

A further experiment has as its target T1, human DPP IV (Homo sapiens, UniProt P27487).
T1 construct: extracellular fragment of protease DPP IV (aa29-766); made in house; host or cells: baculovirus expression system Bac-to-Bac
The experiment can be described thus: DPP IV activity screening (Ala-Pro-AMC fluorescence). The procedure: as §1
Instruments: Microplate Reader (PerkinElmer, USA).
The linear change of fluorescence value at 460 nm in unit time was dynamically measured and DPP IV activity was obtained by calculation.
as §2, §3

Another experiment addresses T2, FAP (Homo sapiens, UniProt Q12884).
T2 sequence (Q12884 1-760): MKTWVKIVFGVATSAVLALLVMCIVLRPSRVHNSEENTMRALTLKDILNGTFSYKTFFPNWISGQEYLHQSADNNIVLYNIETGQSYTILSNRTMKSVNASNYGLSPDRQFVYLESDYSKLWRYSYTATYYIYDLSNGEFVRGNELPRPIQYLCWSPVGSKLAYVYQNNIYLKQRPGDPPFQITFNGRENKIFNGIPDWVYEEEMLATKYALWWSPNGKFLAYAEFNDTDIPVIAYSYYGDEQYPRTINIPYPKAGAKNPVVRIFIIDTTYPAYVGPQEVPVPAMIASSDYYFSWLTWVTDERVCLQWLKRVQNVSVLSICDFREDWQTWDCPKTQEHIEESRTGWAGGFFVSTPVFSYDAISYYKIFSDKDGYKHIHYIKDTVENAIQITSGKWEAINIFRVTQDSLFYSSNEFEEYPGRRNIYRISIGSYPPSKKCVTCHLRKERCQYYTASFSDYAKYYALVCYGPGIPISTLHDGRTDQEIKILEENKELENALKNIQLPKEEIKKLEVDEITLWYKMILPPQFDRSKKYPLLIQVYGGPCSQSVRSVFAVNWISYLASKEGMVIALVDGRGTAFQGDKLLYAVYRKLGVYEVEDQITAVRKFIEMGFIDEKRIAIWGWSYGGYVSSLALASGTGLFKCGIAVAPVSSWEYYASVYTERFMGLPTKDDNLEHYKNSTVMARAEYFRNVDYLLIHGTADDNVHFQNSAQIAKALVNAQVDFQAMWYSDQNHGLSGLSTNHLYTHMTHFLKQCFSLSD
Kind of experiment: FAP inhibition (Table 1). Conditions: N.I. = No Inhibition.

For a further experiment, the target named is T3, Human DPP 9 (Homo sapiens, UniProt Q86TI2).
T3 construct: made in house; host or cells: insect cells, baculovirus Bac-to-Bac
T3 sequence (Q86TI2 whole entry): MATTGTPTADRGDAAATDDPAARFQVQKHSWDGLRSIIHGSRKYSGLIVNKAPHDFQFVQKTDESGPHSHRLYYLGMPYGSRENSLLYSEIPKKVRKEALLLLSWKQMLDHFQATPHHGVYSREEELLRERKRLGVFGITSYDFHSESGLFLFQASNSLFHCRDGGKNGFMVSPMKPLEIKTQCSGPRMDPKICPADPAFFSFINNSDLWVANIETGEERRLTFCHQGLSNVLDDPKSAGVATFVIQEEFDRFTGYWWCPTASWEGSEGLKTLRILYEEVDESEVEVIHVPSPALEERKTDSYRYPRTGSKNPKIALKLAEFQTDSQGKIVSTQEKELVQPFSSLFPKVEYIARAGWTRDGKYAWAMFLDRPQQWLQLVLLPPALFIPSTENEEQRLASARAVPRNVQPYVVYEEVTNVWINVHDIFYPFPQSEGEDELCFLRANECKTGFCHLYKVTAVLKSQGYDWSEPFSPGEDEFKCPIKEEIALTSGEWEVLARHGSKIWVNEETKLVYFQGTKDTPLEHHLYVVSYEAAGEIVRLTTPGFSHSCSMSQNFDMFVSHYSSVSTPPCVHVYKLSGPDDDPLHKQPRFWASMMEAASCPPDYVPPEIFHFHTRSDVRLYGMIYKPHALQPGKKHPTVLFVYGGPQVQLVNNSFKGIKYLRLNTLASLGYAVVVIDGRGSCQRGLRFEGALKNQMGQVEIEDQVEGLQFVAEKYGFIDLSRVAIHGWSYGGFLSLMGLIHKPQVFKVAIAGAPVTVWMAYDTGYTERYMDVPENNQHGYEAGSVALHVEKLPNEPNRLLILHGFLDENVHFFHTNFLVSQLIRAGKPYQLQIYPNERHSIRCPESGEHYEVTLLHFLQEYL
Kind of experiment: DPP 9 activity screening (Ala-Pro-AMC fluorescence). Conditions: N.I. = No Inhibition.
From the text: as §1
(§4) Materials: human DPP IV, obtained extracellular fragment of protease DPP IV (aa29-766), was expressed and purified by our laboratory using baculovirus expression system Bac-to-Bac (purchased from GIBCO company) in accordance with the conventional experimental technology; human DPP 8 was obtained in insect cells by our laboratory using baculovirus expression system Bac-to-Bac (purchased from GIBCO company) in accordance with the conventional experimental technology; Human DPP 9 was obtained in insect cells by our laboratory using baculovirus expression system Bac-to-Bac (purchased from GIBCO company) in accordance with the conventional experimental technology; and the substrate Ala-Pro-AMC was synthesized by GL Biochem (Shanghai) Ltd.
(§5) Principle of Activity test: DPP IV, DPP 8 and DPP 9 can specifically hydrolyze the substrate Ala-Pro-AMC to form product AMC, and AMC is excited by 355 nm of UV light to generate 460 nm of emission light. The linear change of fluorescence value at 460 nm in unit time was dynamically measured and DPP IV activity was obtained by calculation.
as §2, §3

Another experiment concerns the target T4, human DPP 8 (Homo sapiens, UniProt Q6V1X1).
T4 construct: made in house; host or cells: insect cells, baculovirus Bac-to-Bac
The experiment can be described thus: DPP 8 activity screening (Ala-Pro-AMC fluorescence). Conditions: N.I. = No Inhibition.
From the text: as §1, §4, §5, §2, §3

T1 sequence (P27487 29-766): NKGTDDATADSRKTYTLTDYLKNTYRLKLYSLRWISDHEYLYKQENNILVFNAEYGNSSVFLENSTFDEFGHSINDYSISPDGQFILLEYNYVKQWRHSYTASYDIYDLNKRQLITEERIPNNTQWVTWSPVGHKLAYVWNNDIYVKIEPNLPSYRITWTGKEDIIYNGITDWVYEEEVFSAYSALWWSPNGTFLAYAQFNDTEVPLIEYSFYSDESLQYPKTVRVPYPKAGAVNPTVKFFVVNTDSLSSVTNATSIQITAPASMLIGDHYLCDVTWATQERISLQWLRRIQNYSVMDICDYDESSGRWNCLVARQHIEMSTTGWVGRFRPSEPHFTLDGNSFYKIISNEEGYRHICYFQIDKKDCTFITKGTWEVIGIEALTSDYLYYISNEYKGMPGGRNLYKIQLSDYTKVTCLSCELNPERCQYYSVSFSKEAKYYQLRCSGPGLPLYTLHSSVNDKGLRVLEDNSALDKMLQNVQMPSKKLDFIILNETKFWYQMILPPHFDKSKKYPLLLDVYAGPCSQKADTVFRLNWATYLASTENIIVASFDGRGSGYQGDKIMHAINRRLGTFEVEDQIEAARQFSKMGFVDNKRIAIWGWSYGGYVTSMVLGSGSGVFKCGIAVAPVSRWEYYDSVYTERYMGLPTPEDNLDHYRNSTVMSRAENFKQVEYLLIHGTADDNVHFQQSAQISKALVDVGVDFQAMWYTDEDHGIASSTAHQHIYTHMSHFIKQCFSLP
T4 sequence (Q6V1X1 whole entry): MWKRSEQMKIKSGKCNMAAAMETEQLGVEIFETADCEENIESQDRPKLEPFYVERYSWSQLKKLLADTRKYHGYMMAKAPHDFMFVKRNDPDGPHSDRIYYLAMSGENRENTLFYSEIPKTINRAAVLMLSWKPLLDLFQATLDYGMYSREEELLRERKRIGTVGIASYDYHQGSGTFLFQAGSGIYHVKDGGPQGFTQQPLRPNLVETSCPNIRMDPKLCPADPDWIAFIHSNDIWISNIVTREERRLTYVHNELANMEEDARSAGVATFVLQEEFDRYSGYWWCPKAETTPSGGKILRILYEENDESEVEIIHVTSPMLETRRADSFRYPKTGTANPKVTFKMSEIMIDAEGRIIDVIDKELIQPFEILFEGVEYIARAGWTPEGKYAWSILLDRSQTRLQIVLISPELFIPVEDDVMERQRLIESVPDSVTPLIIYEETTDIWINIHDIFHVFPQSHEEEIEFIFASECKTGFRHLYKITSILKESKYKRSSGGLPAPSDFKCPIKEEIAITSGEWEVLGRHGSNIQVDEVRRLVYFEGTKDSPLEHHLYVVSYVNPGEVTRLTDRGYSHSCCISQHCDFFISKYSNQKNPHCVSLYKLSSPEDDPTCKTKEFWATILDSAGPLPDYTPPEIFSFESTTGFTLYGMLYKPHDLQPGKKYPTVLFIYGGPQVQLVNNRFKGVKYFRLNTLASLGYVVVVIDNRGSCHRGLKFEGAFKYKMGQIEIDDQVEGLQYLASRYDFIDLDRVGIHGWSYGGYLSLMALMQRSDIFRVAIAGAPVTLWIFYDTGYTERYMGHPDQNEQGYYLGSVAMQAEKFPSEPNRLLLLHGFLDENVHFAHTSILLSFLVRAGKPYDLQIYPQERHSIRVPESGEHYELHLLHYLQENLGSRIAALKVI

As a reminder, the IC50 is the concentration that inhibits the measured activity by half. In the case of `N#Cc1ccccc1Cn1c(N2CCC[C@@H](N)C2)nc2c(C(=O)NC3CC3)csc2c1=O` [Compound 65, (R)-2-(3-aminopiperidin-1-yl)-3-(2-cyanobenzyl)-N-cyclopropyl-4-oxo-3,4-dihydrothieno[3,2-d]pyrimidine-7-carboxamide], the “DPP 7 IC50” value in experiment [1] is reported as “N.I”. For the same molecule, the IC50 against human DPP IV was determined as 0.0302 µM; against FAP it was 75.5 µM; against Human DPP 9 it was 137 µM; at human DPP 8 it was 44.8 µM.

For `CC(=O)OCc1csc2c(=O)n(Cc3ccccc3C#N)c(N3CCC[C@@H](N)C3)nc12` [Compound 56, (R)-(2-(3-aminopiperidin-1-yl)-3-(2-cyanobenzyl)-4-oxo-3,4-dihydrothieno-[3,2-d]pyrimidin-7-yl)methyl acetate], the “DPP 7 IC50” value in experiment [1] is on record as “N.I”. The molecule further came in with an IC50 at human DPP IV of 0.0113 µM. Besides, the “FAP IC50” value at FAP is reported as “N.I”. For the same molecule, the “DPP 9 IC50” value at Human DPP 9 is reported as “N.I”. Further, the “DPP 8 IC50” value at human DPP 8 was “N.I”.

Turning to `N#Cc1ccccc1Cn1c(N2CCC[C@@H](N)C2)nc2c(N)csc2c1=O` [Compound 84, (R)-2-((7-amino-2-(3-aminopiperidin-1-yl)-4-oxothieno[3,2-d]pyrimidin-3(4H)-yl)methyl)benzonitriIe], the “DPP 7 IC50” value in experiment [1] was “N.I”. Further, the IC50 came to 0.0242 µM against human DPP IV, 91.3 µM against FAP and 62 µM on human DPP 8. Besides, the “DPP 9 IC50” value on Human DPP 9 is “N.I”.

For `COCCNC(=O)c1csc2c(=O)n(Cc3ccccc3C#N)c(N3CCC[C@@H](N)C3)nc12` [Compound 74, (R)-2-(3-aminopiperidin-1-yl)-3-(2-cyanobenzyl)-N-(2-methoxyethyl)-4-oxo-3,4-dihydrothieno[3,2-d]pyrimidine-7-carboxamide], in experiment [1], the “DPP 7 IC50” value is on record as “N.I”. For the same molecule, the IC50 amounted to 0.0106 µM on human DPP IV, 30.6 µM against FAP, 92.9 µM against Human DPP 9 and 18.4 µM against human DPP 8.

Consider `COC(=O)[C@H](Cc1ccc(O)cc1)NC(=O)c1csc2c(=O)n(Cc3ccccc3C#N)c(N3CCC[C@@H](N)C3)nc12` [Compound 62, (S)-methyl 2-(2-((R)-3-aminopiperidin-1-yl)-3-(2-cyanobenzyl)-4-oxo-3,4-dihydrothieno[3,2-d]pyrimidine-7-carboxamido)-3-(4-hydroxyphenyl)-propanoate], for which the “DPP 7 IC50” value in experiment [1] is on record as “N.I”. The IC50 was determined as 0.0492 µM at human DPP IV, 37.4 µM on FAP, 54.8 µM on Human DPP 9 and 12.3 µM on human DPP 8.

In the case of `N#Cc1ccccc1Cn1c(N2CCC[C@@H](N)C2)nc2c(C(N)=O)csc2c1=O` [Compound 45, (R)-2-(3-aminopiperidin-1-yl)-3-(2-cyanobenzyl)-4-oxo-3,4-dihydrothieno-[3,2-d]pyrimidine-7-carboxamide], the “DPP 7 IC50” value in experiment [1] is given as “N.I”. At human DPP IV, the IC50 was 0.00357 µM. Moreover, the “FAP IC50” value at FAP is given as “N.I”. Further, at Human DPP 9, the “DPP 9 IC50” value was “N.I”. At human DPP 8, the “DPP 8 IC50” value was “N.I”.

Regarding `N#Cc1ccccc1Cn1c(N2CCC[C@@H](N)C2)nc2c(C(=O)NC3CCOCC3)csc2c1=O` [Compound 81, (R)-2-(3-aminopiperidin-1-yl)-3-(2-cyanobenzyl)-4-oxo-N-(tetrahydro-2H-pyran-4-yl)-3,4-dihydrothieno[3,2-d]-pyrimidine-7-carboxamide], the “DPP 7 IC50” value in experiment [1] is given as “N.I”. In addition, the IC50 against human DPP IV was 0.0202 µM; against FAP, 44 µM; against Human DPP 9, 348 µM; against human DPP 8, 59.4 µM.

For the molecule `COCCNC(=O)c1cc2nc(N3CCC[C@@H](N)C3)n(Cc3ccccc3C#N)c(=O)c2s1` [Compound 111, (R)-2-(3-aminopiperidin-1-yl)-3-(2-cyanobenzyl)-N-(2-methoxyethyl)-4-oxo-3,4-dihydrothieno[3,2-d]-pyrimidine-6-carboxamide], the “DPP 7 IC50” value in experiment [1] is listed as “N.I”. In addition, the IC50 against human DPP IV worked out at 0.0189 µM; on Human DPP 9, 131 µM; against human DPP 8, 112 µM. The “FAP IC50” value on FAP is on record as “N.I”.

As for `CCNC(=O)c1cc2nc(N3CCC[C@@H](N)C3)n(Cc3ccccc3C#N)c(=O)c2s1` [Compound 113, (R)-2-(3-aminopiperidin-1-yl)-3-(2-cyanobenzyl)-N-ethyl-4-oxo-3,4-dihydrothieno[3,2-d]pyrimidine-6-carboxamide], in experiment [1], the “DPP 7 IC50” value is “N.I”. Also, the IC50 amounted to 0.0187 µM against human DPP IV, 173 µM on FAP, 303 µM against Human DPP 9 and 166 µM on human DPP 8.

For `N#Cc1ccccc1Cn1c(N2CCC[C@@H](N)C2)nc2c(C(=O)NCC3CC3)csc2c1=O` [Compound 73, (R)-2-(3-aminopiperidin-1-yl)-3-(2-cyanobenzyl)-N-(cyclopropylmethyl)-4-oxo-3,4-dihydrothieno[3,2-d]-pyrimidine-7-carboxamide], the 50% inhibitory concentration (IC50) in experiment [1] is 159 µM; against human DPP IV, 0.00892 µM; against FAP, 14.6 µM; against Human DPP 9, 66.8 µM; against human DPP 8, 9.08 µM.

Consider `N#Cc1ccccc1Cn1c(N2CCC[C@@H](N)C2)nc2cc(CO)sc2c1=O` [Compound 28, (R)-2-((2-(3-aminopiperidin-1-yl)-6-(hydroxymethyl)-4-oxothieno[3,2-d]-pyrimidin-3(4H)-yl)methyl)benzonitrile], for which, in experiment [1], the “DPP 7 IC50” value is on record as “N.I”. Further, the IC50 is 0.0102 µM at human DPP IV, 85.9 µM against FAP, 35.2 µM at Human DPP 9 and 27 µM against human DPP 8.

For the molecule `CS(=O)(=O)Nc1csc2c(=O)n(Cc3ccccc3C#N)c(N3CCC[C@@H](N)C3)nc12` [Compound 85, (R)-N-(2-(3-aminopiperidin-1-yl)-3-(2-cyanobenzyl)-4-oxo-3,4-dihydrothieno-[3,2-d]pyrimidin-7-yl) methanesulfonamide], in experiment [1], the “DPP 7 IC50” value is given as “N.I”. Besides, the IC50 on human DPP IV worked out at 0.0371 µM; on FAP it was 255 µM; against human DPP 8 it was 339 µM. Further, the “DPP 9 IC50” value on Human DPP 9 is on record as “N.I”.

`CC(C)CCNC(=O)c1csc2c(=O)n(Cc3ccccc3C#N)c(N3CCC[C@@H](N)C3)nc12` [Compound 78, (R)-2-(3-aminopiperidin-1-yl)-3-(2-cyanobenzyl)-N-isopentyl-4-oxo-3,4-dihydrothieno[3,2-d]pyrimidine-7-carboxamlde]: the IC50 in experiment [1] is 27.1 µM; on human DPP IV, 0.0288 µM; at FAP, 64.3 µM; against Human DPP 9, 407 µM; against human DPP 8, 60.4 µM.

With `CC(C)CCNC(=O)c1cc2nc(N3CCC[C@@H](N)C3)n(Cc3ccccc3C#N)c(=O)c2s1` [Compound 121, (R)-2-(3-aminopiperidin-1-yl)-3-(2-cyanobenzyl)-N-isopentyl-4-oxo-3,4-dihydrothieno[3,2-d]pyrimidine-6-carboxamide], in experiment [1], the “DPP 7 IC50” value is on record as “N.I”. Also, the IC50 against human DPP IV is 0.0269 µM. On FAP, the “FAP IC50” value was “N.I”. Moreover, the “DPP 9 IC50” value on Human DPP 9 is “N.I”. Besides, on human DPP 8, the “DPP 8 IC50” value is listed as “N.I”.

Take `CCOC(=O)C1CCN(C(=O)c2cc3nc(N4CCC[C@@H](N)C4)n(Cc4ccccc4C#N)c(=O)c3s2)CC1` [Compound 129, (R)-ethyl 1-(2-(3-aminopiperidin-1-yl)-3-(2-cyanobenzyl)-4-oxo-3,4-dihydrothieno[3,2-d]pyrimidine-6-carbonyl)piperidine-4-carboxylate]: in experiment [1], the “DPP 7 IC50” value is “N.I”. Besides, the figures for the IC50 against human DPP IV and against human DPP 8 were 0.0339 µM and 16.3 µM, respectively. In addition, at Human DPP 9, the “DPP 9 IC50” value was “N.I”.

For the origin of these results see patent publication US9045491B2, “Thienyl [3,2-D] pyrimidin-4-one compounds, preparation method, pharmaceutical compositions and use thereof” (SHANGHAI INSTITUTE OF MATERIA MEDICA, CHINESE ACADEMY OF …, priority 2011, dated 2015).
